Source: patent US11479601B2, “Antibodies specific to Sonic Hedgehog and method of use thereof” (The Regents of the University of California, priority 2016, dated 2022)
“Also recorded” adds a separate entry of the source.

Legend:
Shh+ cells (A549) = assay: Shh rate by flow cytometry in drug-treated A549 cells; assay type: cell-based, human
Protocol: FACS (1:40). The secondary antibody was a donkey anti-mouse FITC-linked antibody (ab97029, 1:100, Abcam). For cell analysis after treatment assays (chemotherapy or GDC0449), a dead cell marker (SytoxRed, Invitrogen) was also used. For human fresh samples, an anti-CD45 APC-linked antibody (ab28106, 1:100, Abcam), and a dead cells marker (SytoxRed, Invitrogen) were added. For staining of stable transfected cell lines, mouse anti-HA antibody (Abcam, 1:100) and rabbit anti-FLAG antibody (Cell Signaling; 1:400) were used. Corresponding secondary antibodies were donkey anti-mouse AlexaFluor647 (Invitrogen, 1:1000) and donkey anti-rabbit AlexFluor594 (Invitrogen, 1:1000) antibodies. Flow cytometry analyses were performed on AccuriC6 flow cytometer (BD Biosciences), and FACS on FACSAria II (BD Biosciences). Flow analyses were based at least on 200,000 cells, and each test was made at least in triplicate. For all experiments, a negative control with cells processed without primary antibody was used. Sorted cells (Shh+ and Shh− cells) were collected on fresh media, and seeded on culture plates or freezed at −80° C. according to further analyses. Flow cytometry analysis was performed without membrane permeabilization prior to labeling the cells, unless otherwise indicated (e.g., FIG. 1D). Cisplatin was purchased from Sigma, and freshly reconstituted in PBS (2 g/1). Docetaxel was purchased from Tocris Bioscience, reconstituted in DMSO (5 g/1 stock dilution at −20° C.; further dilution in fresh culture medium) for in vitro assays, or reconstituted in ethanol/polysorbate 80 (1:1; 5 g/1 stock dilution at −20° C.; further dilution in PBS) for in vivo assays. GDC0449 was purchased from Selleck Chemicals, and reconstituted in DMSO (30 mM stock dilution). Shh human recombinant protein was obtained from EBioscience, and used at 1200 ng/ml. The mouse Shh-C-terminal antibody (mentioned above) was used for flow cytometry and FACS (1:40). The secondary antibody was a donkey anti-mouse FITC-linked antibody (ab97029, 1:100, Abcam). For cell analysis after treatment assays (chemotherapy or GDC0449), a marker for dead cells (SytoxRed®, Invitrogen) was also used. For fresh human samples, an anti-CD45 APC-linked antibody (ab28106, 1:100, Abcam) was added, and a marker for dead cells (SytoxRed®, Invitrogen). For staining of stable transfected cell lines, a mouse anti-HA antibody (Abcam, 1:100) and a rabbit anti-FLAG antibody (Cell Signaling; 1:400) were used. Corresponding secondary antibodies were donkey anti-mouse AlexaFluor647 (Invitrogen, 1:1 000) and donkey anti-rabbit AlexFluor594 (Invitrogen, 1:1 000). Flow cytometry analyses were performed on an AccuriC6 flow cytometer (BD Biosciences), and FACS on a FACSAria II (BD Biosciences). […]

Shh gene expression = Shh gene expression by qPCR in drug-treated A549 cells; assay type: cell-based, human
Protocol: RNA from unsorted cells was extracted with Qiagen Rneasy® Minikit (Quiagen), according to manufacturer instructions. RNA from sorted cells was extracted with Arcturus PicoPure RNA Isolation Kit (Life technologies). cDNA was then synthesized with iScript cDNA Synthesis Kit (Bio-Rad), according to manufacturer instructions. Commercial primers for Shh gene were obtained from Origen. Quantitative PCR was performed on Applied Biosystems' 7900HT Fast Real-Time PCR System, with triplicate for each gene analysis. Gene expression analysis was calculated with deltaCT method, with normalization with endogenous control (18s gene) (normalized gene expression level=2^−deltaCT(test gene)−deltaCT(18s)). For ddPCR, droplets creation, PCR and results analysis were performed according to manufacturer instructions (BioRad, QX100 ddPCR System, Quantasoft software). Results of ddPCR were expressed as FAM concentrations (copies/μl). RNA from unsorted cells was extracted with Qiagen's RNeasy Mini kit (Qiagen) according to the manufacturer's instructions. […] Quantitative RT-PCR (qRT-PCR) was performed on an Applied Biosystems 7900HT Fast Real-Time PCR System, in triplicate for each sample. Gene expression analysis was calculated with the delta-deltaCT method normalized to an endogenous control (18S gene). […] Results of ddPCR were expressed as FAM concentrations (copies/0).

A549 cells [1] = assay: Proliferation (MTS) and migration/wound healing assay on A549 cells; assay type: cell-based, human; conditions: GDC0449
Protocol: Proliferation assay was performed by MTS assay (CellTiter 96, Promega), according to manufacturer instructions. […] Migration assay was performed by wound healing assay. Monolayers of cells were: cultured, scratched, treated with media containing proteins and/or drugs at different concentrations: Shh protein, DMSO, and GDC0449, and recorded 0 and 24, 72 and 96 hours after treatment. MTS proliferation assays were performed (CellTiterGlo 96, Promega) according to the manufacturer's instructions. […] Wound healing assays were performed to study cell migration. Monolayers of cells were cultured, scratched, treated with media containing proteins and/or drugs at different concentrations: Shh protein, DMSO, and GDC0449-recorded at 0, 24, 72 and 96 hours after treatment.

[2] = test system: Shh+ cells in A549 xenografts; assay: Shh rate in A549 xenografts of drug-treated nude mice; assay type: in vivo
Protocol: For xenograft formation, female nude mice, 5 to 10 weeks old, were injected subcutaneously (SC) with 10 million A549 cells in the dorsal area in a volume of […]. For SC inoculation of sorted cells, 1,500 cells of A549 Shh+ or Shh− cells were injected in a volume of […]. For intra-veinous injection of sorted cells, 1,000 cells of A549 Shh+ or Shh− cells were injected in the tail vein. For the in vivo treatment assay, after xenograft formation, animals were injected intravenously with cisplatin (10 mg/kg weekly), docetaxel (10 mg/kg twice a week) or vehicle, and intraperitoneally with GDC0449 (20 mg/kg daily) or vehicle. Each group consisted in 4-5 mice. Tumor size was determined twice a week, and tumor volumes were calculated using width (x) and length (y) (x^2y/2, where x<y). Tumors were collected after mice euthanasia, and cell dissociation was performed as for fresh human samples (cf supra). Flow cytometry and FACS were done as described supra. All animals were cared in accord with University of California San Francisco (UCSF) guidelines.
For xenograft formation, 5-10 week-old female nude mice, were injected subcutaneously (SC) with 10 million A549 cells in the dorsal area in a volume of 100 μl. […] Tumor size was determined twice a week, and tumor volumes were calculated using width (x) and length (y) (x^2y/2, where x<y). […]

A549 cells [3] = assay: Tumor formation after inoculation of GDC0449 pre-treated A549 cells; assay type: in vivo, nude mice; conditions: A549 cells pre-treated with 40 μM GDC0449, 1 million cells subcutaneous, versus DMSO pre-treated
Source text: Then, nude mice were inoculated (sub-cutaneous) with 1 million treated cells (still adherent to the culture flask after treatment with GDC0449). […] Then, nude mice were inoculated subcutaneously with 1 million treated cells (still adherent to the culture flask after treatment with GDC0449).

advanced-stage SCLC = conditions: cisplatin/etoposide with or without vismodegib, first line; cited from earlier work
[4] = test system: most chemo-resistant NSCLC cell lines; conditions: previous study; cited from earlier work
[5] = biological target: full-length human Sonic Hedgehog (Shh) expressed in cells (endogenous, or transfected with pCMV-Shh) (human) (UniProt Q15465); assay: FACS of non-permeabilised A549 cells
[6] = biological target: full-length human Sonic Hedgehog (Shh) expressed in cells (endogenous, or transfected with pCMV-Shh) (human) (UniProt Q15465); assay: flow cytometry, untransfected cells (No transfection)
[7] = biological target: full-length human Sonic Hedgehog (Shh) expressed in cells (endogenous, or transfected with pCMV-Shh) (human) (UniProt Q15465); assay: flow cytometry, A549 cells transfected with pCMV-Shh
[8] = biological target: full-length human Sonic Hedgehog (Shh) expressed in cells (endogenous, or transfected with pCMV-Shh) (human) (UniProt Q15465); assay: flow cytometry, cells transfected with full-length Shh
[9] = biological target: full-length human Sonic Hedgehog (Shh) expressed in cells (endogenous, or transfected with pCMV-Shh) (human) (UniProt Q15465); assay: flow cytometry, A549 + vector control (endogenous Shh)
[10] = biological target: full-length human Sonic Hedgehog (Shh) expressed in cells (endogenous, or transfected with pCMV-Shh) (human) (UniProt Q15465); assay: flow cytometry of ground up permeabilised A549 xenograft tumour cells from control IgG-treated mice
[11] = biological target: full-length human Sonic Hedgehog (Shh) expressed in cells (endogenous, or transfected with pCMV-Shh) (human) (UniProt Q15465); assay: FACS of non-permeabilised A549 cells labeled with the antibody; Total Cells Sorted 19 million, % Shh+ Cells 0.06%
A549 cells [12] = assay: Viability of A549 cells treated with Shh antibodies ± GLI inhibitor 249C; assay type: cell-based, human; conditions: Homo sapiens, A549
Protocol: The effect of the C-terminal Shh antibodies from clones 2G4 and 2D9 on the viability of A549 cells was determined. A549 cells were exposed to increasing concentrations of the C-terminal Shh antibodies (2G4, 2D9), or antibodies against the N-terminal portion of Shh protein (6D3, 2E1), and the effective dose (ED50) was determined (assay 1: FIG. 16A; assay 2: FIG. 16B). […] Possibly due to the fact that very few cells express full-length Shh on the cell surface, the cytotoxic effect of the C-terminal Shh antibodies was not as potent as the cytotoxic effect of the N-terminal antibodies.
Next, the cytotoxicity of the C-terminal Shh antibodies was tested when the antibodies were used in conjunction with a small-molecule inhibitor of GLI zinc-finger transcription factor signaling, 249C (4-(5-chlorofuran-2-yl)-1,3-bis(2,4-difluorophenyl)-5-methyl-N-((4-methylmorpholin-2-yl)methyl)-4,5-dihydro-1H-pyrazole-5-carboxamide; Compound 135 above). A549 cells were exposed to varying concentrations of the C-terminal antibodies (2G4, 2D9) or the N-terminal antibodies (6D3, 2E1), in the presence or absence of a very low dose (40 nM) of 249C. (The IC50 of 249C in A549 cells is ˜70 nM.)

advanced SCLC = conditions: sonidegib in addition to cisplatin/etoposide; cited from earlier work
A549 Shh− cells = assay: Migration/wound healing assay on A549 Shh− cells; assay type: cell-based, human; conditions: Shh recombinant protein 1200 ng/mL, day 3
Protocol: Migration assay was performed by wound healing assay. Monolayers of cells were: cultured, scratched, treated with media containing proteins and/or drugs at different concentrations: Shh protein, DMSO, and GDC0449, and recorded 0 and 24, 72 and 96 hours after treatment.
Wound healing assays were performed to study cell migration. Monolayers of cells were cultured, scratched, treated with media containing proteins and/or drugs at different concentrations: Shh protein, DMSO, and GDC0449-recorded at 0, 24, 72 and 96 hours after treatment.

[13] = biological target: T1, recombinant full-length Shh protein (human, UniProt Q15465 24-462, limits assumed); assay: BLI (Octet), response (nm) against Shh conc (nM), four points between about 28 and 165 nM, fitted line, R2 = 0.97
T1 construct: Printed only as 'full-length recombinant Shh protein'; also called full-length recombinant Shh protein

[14] = biological target: T1, recombinant full-length Shh protein; assay: BLI (Octet), response (nm) against Shh conc (nM), four points between about 28 and 165 nM, fitted line, R2 = 0.98

In the case of `CS(=O)(=O)c1ccc(C(=O)Nc2ccc(Cl)c(-c3ccccn3)c2)c(Cl)c1` [GDC0449], the “Shh rate post-chemotherapy combined with GDC0449 compared to chemotherapy alone” value (Shh+ cells (A549); A549 cells, cisplatin or docetaxel plus GDC0449 40 μM) is reported as “significant decrease; also recorded: decreased significantly”, the “Shh+ cells in pre-inoculated A549 cells” value (Shh+ cells (A549); GDC0449 40 μM, day 3) is reported as 0% and the “Shh gene expression (qPCR)” value (Shh gene expression; post-GDC0449 treatment, 20 μM and 40 μM) is reported as “dramatic decrease”. For the same molecule, the “cell proliferation and migration” value (A549 cells [1]) was “inhibition of cell proliferation and migration”, the “Shh rate in A549 xenografts, sequential assay” value ([2]; cisplatin 10 mg/kg IV weekly, then GDC0449 20 mg/kg IP daily) was “significant reduction” and the “Shh rate in A549 xenografts, combination treatment compared to chemotherapy alone” value ([2]; docetaxel 10 mg/kg twice a week plus GDC0449 20 mg/kg IP daily) was “significant reduction”. For the same molecule, the “tumor formation from pre-treated cells” value (A549 cells [3]) was “completely inhibited”, the “response rate, PFS or OS” value (advanced-stage SCLC) was “No effect” and the “effect with cisplatin in vitro” value [4] was “synergistic effect”.

In the case of “commercial C-terminal Shh antibody (Abcam ab53281, rabbit)”, the % Shh+ cells sorted [5] is reported as 0.06%, the % of cells labeled [6] is reported as 0.11% and the % of cells labeled [7] is reported as 5.1%. The % of cells labeled [8] was 2.45%, the % of cells labeled [9] was 1% and the % Shh-labeled cells [10] was 80%. It also gave a # Shh+ Cells [11] of 3810 cells.

For `N.N.[Cl][Pt][Cl]` [cisplatin], the “Shh rate, Shh+ cells of live cells” value (Shh+ cells (A549); A549 cells, cisplatin 1 mM, 72 h) was 5%, the “Shh rate with escalating doses” value (Shh+ cells (A549); NSCLC cells, escalating doses of cisplatin) was “absolute augmentation” and the “Shh gene expression (qPCR)” value (Shh gene expression; after cisplatin treatment) was “elevation”.

For `CN1CCOC(CNC(=O)C2(C)C(c3ccc(Cl)o3)C(c3ccc(F)cc3F)=NN2c2ccc(F)cc2F)C1` (stereo not drawn) [Ab 249C, 4-(5-chlorofuran-2-yl)-1,3-bis(2,4-difluorophenyl)-5-methyl-N-((4-methylmorpholin-2-yl)methyl)-4,5-dihydro-1H-pyrazole-5-carboxamide], the IC50 (A549 cells [12]) was ~70 nM.

For `Cc1c(C(=O)Nc2ccc(N3C[C@@H](C)O[C@@H](C)C3)nc2)cccc1-c1ccc(OC(F)(F)F)cc1` [sonidegib, N-[6-[(2S,6R)-2,6-Dimethylmorpholin-4-yl]pyridin-3-yl]-2-methyl-3-[4-(trifluoromethoxy)phenyl]benzamide], the response rate (advanced SCLC) is listed as 79%.

With “human recombinant N-terminal Shh peptide: Shh human recombinant protein from eBioscience, used at 1200 ng/ml” the “augmentation in the migration rate” value (A549 Shh− cells) was 15%.

B1: Ab 1C11-2D9 (antibody, mouse IgG1, kappa, V domains shown)
VH: EVKLVESGGGLVKPGGSLKLSCAASGFTFSSYTMSWVRQTPAKRLEWVATISSGGGNTYYPDSVKGRFTISRDNARNTLYLQMSSLRSEDTAMYYCARDYRSLFAYWGQGTLVTVSA
VL: QIVLTQSPAIMSASPGEKVTITCSASSSVSYMHWFQQKPGTSPKLWIYSTSNLASGVPARFSGSGSGTSYSLTISRMEAEDAATYYCQQRSSYPFTFGSGTKLEIKR
notes: also called clone 2D9; Ab11-2D9
Work on B1 yielded a Kd [13] of 4.6 nM.

B2: Ab 1C11-2G4 (antibody, IgG1, V domains shown)
VH: EVKLVESGGGLVKPGGSLKLSCAASGFTFSSYTMSWVRQTPAKRLEWVATISSGGGNTYYPDSVKGRFTISRDNARNTLYLQMSSLRSEDTAMYYCARDYRSLFAYWGQGTLVTVSA
VL: QIVLTQSPAIMSASPGEKVTITCSASSSVSYMHWFQQKPGTSPKLWIYSTSNLASGVPARFSGSGSGTSYSLTISRMEAEDAATYYCQQRSSYPFTFGSGTKLEIK
notes: also called clone 2G4; Ab 2G4
For B2, the Kd [14] was 4 nM.
